Assay results taken from ChEMBL document CHEMBL1135689, “Anthranilic acid amides: a novel class of antiangiogenic VEGF receptor kinase inhibitors” (J Med Chem, 2002).
Where “and” joins values, the source holds several entries; their conditions need not be identical. Equal entries are not always repeated.

Tests used:
[1] = target: Platelet-derived growth factor receptor beta (Homo sapiens, UniProt P09619)
B16 [2] = assay: Mean % inhibition of primary tumor growth in B16 mouse administration; type: functional
Mus musculus [3] = species on record: Mus musculus
Angiopoietin-1 receptor = Angiopoietin-1 receptor (Homo sapiens, UniProt Q02763); assay: In vitro inhibition of Tyrosine protein kinase receptor TIE-2 (Tek) expressed in baculovirus
Sequence of Angiopoietin-1 receptor (Q02763 whole entry): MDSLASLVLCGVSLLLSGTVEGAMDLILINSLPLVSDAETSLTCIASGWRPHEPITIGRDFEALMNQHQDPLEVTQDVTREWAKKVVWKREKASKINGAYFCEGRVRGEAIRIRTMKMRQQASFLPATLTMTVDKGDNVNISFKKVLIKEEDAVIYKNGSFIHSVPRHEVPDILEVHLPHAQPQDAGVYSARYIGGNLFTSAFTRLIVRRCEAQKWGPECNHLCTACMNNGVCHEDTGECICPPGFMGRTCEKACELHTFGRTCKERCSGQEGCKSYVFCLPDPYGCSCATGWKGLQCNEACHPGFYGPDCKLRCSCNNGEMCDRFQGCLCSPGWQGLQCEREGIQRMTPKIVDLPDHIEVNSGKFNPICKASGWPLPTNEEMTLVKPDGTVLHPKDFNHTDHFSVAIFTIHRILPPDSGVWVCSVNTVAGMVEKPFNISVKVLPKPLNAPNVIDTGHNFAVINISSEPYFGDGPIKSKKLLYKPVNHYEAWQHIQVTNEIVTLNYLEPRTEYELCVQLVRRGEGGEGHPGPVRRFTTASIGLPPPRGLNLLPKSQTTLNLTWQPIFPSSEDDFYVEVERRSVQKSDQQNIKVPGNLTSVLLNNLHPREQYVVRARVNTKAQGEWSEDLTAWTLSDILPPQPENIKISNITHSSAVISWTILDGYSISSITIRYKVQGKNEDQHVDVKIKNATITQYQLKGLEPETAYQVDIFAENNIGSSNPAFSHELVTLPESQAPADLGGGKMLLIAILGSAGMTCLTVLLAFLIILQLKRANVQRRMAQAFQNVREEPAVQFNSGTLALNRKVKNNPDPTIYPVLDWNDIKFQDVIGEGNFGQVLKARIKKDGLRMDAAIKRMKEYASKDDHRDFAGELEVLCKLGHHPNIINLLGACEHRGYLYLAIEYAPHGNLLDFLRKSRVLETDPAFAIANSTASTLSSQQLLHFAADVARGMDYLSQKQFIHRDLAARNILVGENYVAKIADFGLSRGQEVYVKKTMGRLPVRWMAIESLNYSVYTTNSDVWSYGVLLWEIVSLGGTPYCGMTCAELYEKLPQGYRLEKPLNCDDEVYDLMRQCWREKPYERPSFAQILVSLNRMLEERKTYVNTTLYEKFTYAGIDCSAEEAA

Mus musculus [4] = species on record: Mus musculus; remark: listed apart in the source
Mus musculus [5] = species on record: Mus musculus; remark: listed apart in the source
[6] = target: Vascular endothelial growth factor receptor 1 (Homo sapiens, UniProt P17948)
[7] = target: Fibroblast growth factor receptor 1 (Homo sapiens, UniProt P11362)
[8] = target: Cyclin-dependent kinase 1 (Homo sapiens, UniProt P06493); assay: In vitro inhibition of Cyclin-dependent kinase 1 (CDK-1) expressed in baculovirus
Sequence of Cyclin-dependent kinase 1 (P06493 whole entry): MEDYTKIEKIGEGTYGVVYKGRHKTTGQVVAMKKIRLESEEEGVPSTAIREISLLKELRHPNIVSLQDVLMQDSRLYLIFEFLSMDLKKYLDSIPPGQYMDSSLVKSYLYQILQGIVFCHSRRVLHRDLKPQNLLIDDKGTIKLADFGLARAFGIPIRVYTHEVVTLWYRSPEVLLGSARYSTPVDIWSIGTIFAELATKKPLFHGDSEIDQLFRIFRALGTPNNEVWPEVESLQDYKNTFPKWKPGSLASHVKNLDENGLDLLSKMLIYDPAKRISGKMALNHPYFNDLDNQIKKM

[9] = target: Hepatocyte growth factor receptor (Homo sapiens, UniProt P08581); assay: In vitro inhibition of Met proto-oncogene tyrosine kinase (c-Met) expressed in baculovirus
[10] = Mean % inhibition of induced angiogenesis by Vascular endothelial growth factor (VEGF) at a peroral dose of 50 mg/kg in mice; type: functional; details: Mus musculus, route oral
[11] = target: Mast/stem cell growth factor receptor Kit (Homo sapiens, UniProt P10721)
[12] = target: Tyrosine-protein kinase ABL1 (Homo sapiens, UniProt P00519)
[13] = target: T1, Vascular endothelial growth factor receptor 2 (Homo sapiens, UniProt P35968)
[14] = target: Proto-oncogene tyrosine-protein kinase Src (Homo sapiens, UniProt P12931)
[15] = target: Insulin-like growth factor 1 receptor (Homo sapiens, UniProt P08069); assay: In vitro inhibition of Insulin-like growth factor I receptor expressed in baculovirus
Sequence of Insulin-like growth factor 1 receptor (P08069 31-736 limits assumed): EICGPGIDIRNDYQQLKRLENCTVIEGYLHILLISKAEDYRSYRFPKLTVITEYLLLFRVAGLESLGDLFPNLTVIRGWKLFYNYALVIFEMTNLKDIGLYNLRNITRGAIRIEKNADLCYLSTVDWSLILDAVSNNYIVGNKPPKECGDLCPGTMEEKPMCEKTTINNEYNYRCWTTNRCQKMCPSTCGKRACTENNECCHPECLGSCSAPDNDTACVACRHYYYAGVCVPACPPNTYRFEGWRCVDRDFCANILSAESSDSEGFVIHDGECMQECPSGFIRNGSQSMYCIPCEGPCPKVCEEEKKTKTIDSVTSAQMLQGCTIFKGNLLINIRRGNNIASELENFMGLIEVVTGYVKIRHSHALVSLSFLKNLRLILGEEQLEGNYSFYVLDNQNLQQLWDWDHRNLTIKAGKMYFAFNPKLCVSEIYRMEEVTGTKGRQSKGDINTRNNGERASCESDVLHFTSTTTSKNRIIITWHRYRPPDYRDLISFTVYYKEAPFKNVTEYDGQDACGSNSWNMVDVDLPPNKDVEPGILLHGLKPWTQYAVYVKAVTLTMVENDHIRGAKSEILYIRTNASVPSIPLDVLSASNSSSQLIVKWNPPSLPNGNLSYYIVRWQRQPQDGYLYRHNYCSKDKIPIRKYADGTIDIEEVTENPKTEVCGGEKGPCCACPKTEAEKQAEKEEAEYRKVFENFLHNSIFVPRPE
Sequence of Insulin-like growth factor 1 receptor (P08069 741-1367 limits assumed): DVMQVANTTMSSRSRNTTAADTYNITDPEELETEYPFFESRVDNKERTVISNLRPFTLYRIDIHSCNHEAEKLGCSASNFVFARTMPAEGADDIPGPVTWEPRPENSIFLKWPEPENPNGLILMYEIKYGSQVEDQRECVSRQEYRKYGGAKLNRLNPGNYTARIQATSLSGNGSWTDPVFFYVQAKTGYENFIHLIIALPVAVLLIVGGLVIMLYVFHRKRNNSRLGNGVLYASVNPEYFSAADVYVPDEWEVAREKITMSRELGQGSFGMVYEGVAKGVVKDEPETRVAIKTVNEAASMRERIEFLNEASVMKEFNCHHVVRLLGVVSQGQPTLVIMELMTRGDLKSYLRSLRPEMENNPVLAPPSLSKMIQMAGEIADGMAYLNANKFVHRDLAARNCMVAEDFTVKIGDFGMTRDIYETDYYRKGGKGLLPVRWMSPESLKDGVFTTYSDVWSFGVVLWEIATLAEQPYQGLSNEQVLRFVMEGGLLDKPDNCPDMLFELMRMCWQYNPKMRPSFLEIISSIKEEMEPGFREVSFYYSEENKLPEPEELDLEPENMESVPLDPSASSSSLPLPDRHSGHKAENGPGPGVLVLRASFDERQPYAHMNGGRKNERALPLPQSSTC

[16] = target: Vascular endothelial growth factor receptor 3 (Homo sapiens, UniProt P35916); assay: In vitro inhibition of Vascular endothelial growth factor receptor 3 [VEGFR-3(Flt-4)] expressed in baculovirus
Sequence of Vascular endothelial growth factor receptor 3 (P35916 whole entry): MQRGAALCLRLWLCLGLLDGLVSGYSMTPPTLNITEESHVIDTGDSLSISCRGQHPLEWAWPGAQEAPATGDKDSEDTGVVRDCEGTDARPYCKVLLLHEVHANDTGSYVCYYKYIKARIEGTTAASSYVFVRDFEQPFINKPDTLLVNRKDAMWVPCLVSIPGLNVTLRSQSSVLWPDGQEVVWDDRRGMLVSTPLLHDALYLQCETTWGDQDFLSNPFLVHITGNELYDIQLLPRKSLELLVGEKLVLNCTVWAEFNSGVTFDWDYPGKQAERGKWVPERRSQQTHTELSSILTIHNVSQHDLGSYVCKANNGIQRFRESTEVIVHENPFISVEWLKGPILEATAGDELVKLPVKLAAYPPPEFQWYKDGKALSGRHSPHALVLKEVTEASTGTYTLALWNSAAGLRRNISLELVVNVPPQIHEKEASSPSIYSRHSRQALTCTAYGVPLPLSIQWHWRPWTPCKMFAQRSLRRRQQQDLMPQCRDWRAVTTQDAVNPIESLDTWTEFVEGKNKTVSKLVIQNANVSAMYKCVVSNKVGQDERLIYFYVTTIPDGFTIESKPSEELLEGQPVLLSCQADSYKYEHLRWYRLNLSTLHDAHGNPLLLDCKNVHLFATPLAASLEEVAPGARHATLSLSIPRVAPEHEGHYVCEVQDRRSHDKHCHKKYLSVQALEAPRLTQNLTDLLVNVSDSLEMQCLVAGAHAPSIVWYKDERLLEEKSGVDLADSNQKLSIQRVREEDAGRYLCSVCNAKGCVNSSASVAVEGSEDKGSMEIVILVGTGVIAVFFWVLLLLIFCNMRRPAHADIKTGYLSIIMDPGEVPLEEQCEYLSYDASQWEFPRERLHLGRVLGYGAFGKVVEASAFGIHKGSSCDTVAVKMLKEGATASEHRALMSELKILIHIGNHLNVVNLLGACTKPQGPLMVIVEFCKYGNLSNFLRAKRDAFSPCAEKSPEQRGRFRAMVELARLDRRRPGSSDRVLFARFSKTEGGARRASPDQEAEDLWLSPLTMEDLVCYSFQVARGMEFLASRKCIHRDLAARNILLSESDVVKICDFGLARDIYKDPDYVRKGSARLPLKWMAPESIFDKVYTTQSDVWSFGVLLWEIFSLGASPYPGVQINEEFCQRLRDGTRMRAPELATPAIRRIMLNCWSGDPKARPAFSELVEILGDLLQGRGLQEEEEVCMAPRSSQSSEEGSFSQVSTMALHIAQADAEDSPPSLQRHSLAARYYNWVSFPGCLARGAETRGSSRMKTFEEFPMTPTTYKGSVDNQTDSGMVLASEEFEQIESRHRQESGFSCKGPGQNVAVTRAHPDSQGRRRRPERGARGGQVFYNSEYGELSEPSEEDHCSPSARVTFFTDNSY

[17] = target: T1, Vascular endothelial growth factor receptor 2; remark: listed apart in the source
[18] = target: Macrophage colony-stimulating factor 1 receptor (Homo sapiens, UniProt P07333)
Sequence of Macrophage colony-stimulating factor 1 receptor (P07333 whole entry): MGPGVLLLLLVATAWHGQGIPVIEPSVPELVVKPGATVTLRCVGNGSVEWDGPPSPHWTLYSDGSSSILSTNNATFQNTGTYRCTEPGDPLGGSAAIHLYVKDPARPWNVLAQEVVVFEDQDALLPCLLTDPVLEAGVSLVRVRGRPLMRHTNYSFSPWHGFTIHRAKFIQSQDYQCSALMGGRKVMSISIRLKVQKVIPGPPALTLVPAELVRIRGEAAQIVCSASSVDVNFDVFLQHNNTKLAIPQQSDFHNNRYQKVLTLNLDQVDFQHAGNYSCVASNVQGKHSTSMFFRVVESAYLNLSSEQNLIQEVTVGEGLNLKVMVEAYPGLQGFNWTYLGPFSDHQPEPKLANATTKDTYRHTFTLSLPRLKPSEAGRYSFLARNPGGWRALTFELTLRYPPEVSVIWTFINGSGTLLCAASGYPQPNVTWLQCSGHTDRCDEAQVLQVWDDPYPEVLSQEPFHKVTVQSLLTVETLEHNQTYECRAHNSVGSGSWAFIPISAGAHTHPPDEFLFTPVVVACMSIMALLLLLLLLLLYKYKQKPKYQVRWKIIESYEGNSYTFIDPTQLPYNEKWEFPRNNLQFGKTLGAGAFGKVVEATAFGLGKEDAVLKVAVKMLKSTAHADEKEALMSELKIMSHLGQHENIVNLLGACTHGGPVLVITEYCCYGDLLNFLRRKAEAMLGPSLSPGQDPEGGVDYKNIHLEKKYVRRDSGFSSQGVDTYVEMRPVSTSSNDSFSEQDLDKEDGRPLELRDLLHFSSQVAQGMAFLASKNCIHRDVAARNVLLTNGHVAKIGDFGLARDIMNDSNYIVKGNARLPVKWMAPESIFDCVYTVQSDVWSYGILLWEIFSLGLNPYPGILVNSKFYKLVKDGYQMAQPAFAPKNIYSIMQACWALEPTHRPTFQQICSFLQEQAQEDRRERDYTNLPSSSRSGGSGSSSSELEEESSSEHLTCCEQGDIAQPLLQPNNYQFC

Mus musculus [19] = species on record: Mus musculus; remark: listed apart in the source
B16 [20] = assay: Mean % inhibition of lymph node metastasis in B16 mouse administration; type: functional
[21] = Mean % inhibition of induced angiogenesis by Vascular endothelial growth factor (VEGF) after intraperitoneal dose of 100 mg/kg in mice; type: functional; details: Mus musculus, ip
[22] = target: Fibroblast growth factor receptor 1 (Mus musculus) (UniProt P16092); assay: Mean % inhibition of induced angiogenesis by Heparin-binding growth factor 2 after intraperitoneal dose of 100 mg/kg in mice; type: functional, organism-based; design: dose 100 mg/kg
B16 [23] = assay: Mean % inhibition of lymph node metastasis in B16 mouse administration.; type: functional

SMILES | Inhibition (B16 [2]) | IC50 (Angiopoietin-1 receptor) [nM] | IC50 [7] [nM] | IC50 [8] [nM] | IC50 [9] [nM] | inhibition in vivo at 50 mg/kg [10] [%] | IC50 [11] [nM] | IC50 [12] [nM] | IC50 [14] [nM] | IC50 [15] [nM] | IC50 [16] [nM] | IC50 [18] [nM] | Inhibition (B16 [20]) [%] | other results
O=C(Nc1cccc(-c2cncc3ccccc23)c1)c1ccccc1NCc1ccncc1 | 39% and 73% | 6800 | 5100 | > 10000 | > 10000 | 100 | 105 | 5330 | > 10000 | 6400 | 52 | 99 | – | IC50 [1]: 357 nM; Plasma concentration (Mus musculus [3]): 1.9 µM l-1; Plasma concentration (Mus musculus [4]): 1.9 µM l-1; Plasma concentration (Mus musculus [5]): 1.6 µM l-1; IC50 [6]: 130 nM; IC50 [13]: 9 nM; IC50 [17]: 1.16 nM; Plasma concentration (Mus musculus [19]): 3.4 µM l-1
Clc1ccc(Nc2nnc(Cc3ccncc3)c3ccccc23)cc1.O=C(O)CCC(=O)O | 34% | – | – | – | – | 68 | – | – | – | – | – | – | 55 | –
Cc1cc(C)c(/C=C2\C(=O)Nc3ccccc32)[nH]1 [SEMAXANIB] | – | > 10000 | – | > 10000 | – | – | – | – | – | > 10000 | 50 | – | – | inhibition in vivo at 100 mg/kg [21]: 65%; inhibition [22]: 87%
COc1cc2/c(=N/c3ccc(Br)cc3F)nc[nH]c2cc1OCC1CCN(C)CC1 [VANDETANIB] | 60% | – | – | – | – | 71 | – | – | – | – | – | – | – | Inhibition (B16 [23]): 61%
O=C(Nc1cccc(C(F)(F)F)c1)c1ccccc1NCc1ccncc1 | 44% | > 10000 | > 10000 | > 10000 | > 10000 | 84 | 236 | 2820 | > 10000 | > 10000 | – | 380 | 85 | –
